Laboratory results as given in paper PMC10584170, “Machine learning-based phenotypic imaging to characterise the targetable biology of Plasmodium falciparum male gametocytes for the development of transmission-blocking antimalarials” (PLOS Pathogens, 2023).
pIC50: −log10 of the molar value. Like-named read-outs stand apart in the source and are kept apart here.

Assays:
[1] = test system: P. falciparum female gametocytes; experiment: P. falciparum Dual Gamete Formation Assay (PfDGFA), female readout (Pfs25-positive female gametes); assay type: cell-based, Plasmodium falciparum NF54; details: for Selectivity ratio F: HepG2 Tox50 versus female IC50; for Average inhibition female (%) / % inhibition female (individual replicates) R1 / % inhibition female (individual replicates) R3 / % inhibition female (individual replicates) R4: PfDGFA at 2µM; for pIC50: PfDGFA, 24 h incubation with gametocytes before induction, female gamete readout, read-out: Female IC50; for HitlevelF: number of replicates with >50% inhibition in the female readout; for HitlevelF / inhibition at 2 µM: 2µM
In short: (§1)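 Male and female gamete formation were quantified by microscopy image analysis following 24 h incubation of mature NF54 gametocytes with compound and activation at 28°C with xanthurenic acid.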

[2] = test system: P. falciparum male gametocytes; experiment: P. falciparum Dual Gamete Formation Assay (PfDGFA), male readout (exflagellation); assay type: cell-based, Plasmodium falciparum NF54; details: for Selectivity Ratio M: HepG2 Tox50 versus male IC50; for Average inhibition male (%) / % inhibition male (individual replicates) R1 / % inhibition male (individual replicates) R3 / % inhibition male (individual replicates) R4: PfDGFA at 2µM; for HitlevelM: number of replicates with >50% inhibition in the male readout; for HitlevelM / inhibition at 2 µM: 2µM
In short: as §1

HepG2 cells = experiment: HepG2 cytotoxicity counter-screen; details: for Tox50: cytotoxic activity against HepG2 cells
[3] = 24h preincubation with gametocytes, average of replicates
[4] = 24h preincubation with gametocytes, replicate R1
[5] = 24h preincubation with gametocytes, replicate R3
[6] = 24h preincubation with gametocytes, replicate R4
[7] = PfDGFA, 24 h incubation with gametocytes before induction, exflagellation readout, read-out: Male IC50
[8] = Plasmodium falciparum, PfDGFA, 24 h incubation with gametocytes before induction, exflagellation readout, read-out: Male IC50

Compound | Selectivity ratio F [1] | Average inhibition female (%) [1, 3] | % inhibition female (individual replicates) R1 [1, 4] | % inhibition female (individual replicates) R3 [1, 5] | % inhibition female (individual replicates) R4 [1, 6] | pIC50 [1] | HitlevelF [1] | Selectivity Ratio M [2] | Average inhibition male (%) [2, 3] | % inhibition male (individual replicates) R1 [2, 4] | % inhibition male (individual replicates) R3 [2, 5] | % inhibition male (individual replicates) R4 [2, 6] | pIC50 [2, 7] | HitlevelM [2] | Tox50 (HepG2 cells) | pIC50 ([1]; Plasmodium falciparum) | pIC50 [2, 8] | further results
COc1ccc(CCNCCCCCCNCCc2ccc(Cl)cc2)c(Cl)c1OC.Cl [TCMDC-131272] | 1.14 | 29.4% | 25.7% | -3.5% | 29.5% | 5.36 | 1 | 2.8 | 69.3% | 64.8% | 45.7% | 90.2% | 5.75 | 3 | 4.93 µM |  |  | 
CC(C)(CNC(=O)[C@H]1CCCCN1)c1nc(-c2ccc(Cl)c(O)c2)c(-c2ccncc2)[nH]1.Cl [TCMDC-141070] | 51.37 |  |  |  |  |  |  | 32.01 |  |  |  |  |  |  | 52.33 µM | 5.99 | 5.79 | HitlevelF ([1]; 24h preincubation): 4; inhibition at 2 µM ([1]; Plasmodium falciparum, 24h preincubation with gametocytes prior to induction of gametogenesis, average of replicates, read-out: Average inhibition female (%)): 83.6%; inhibition at 2 µM ([1]; Plasmodium falciparum, 24h preincubation with gametocytes prior to induction of gametogenesis, replicate R1, read-out: % inhibition female (individual replicates) R1): 71.8%; inhibition at 2 µM ([1]; Plasmodium falciparum, 24h preincubation with gametocytes prior to induction of gametogenesis, replicate R2, read-out: % inhibition female (individual replicates) R2): 79.1%; inhibition at 2 µM ([1]; Plasmodium falciparum, 24h preincubation with gametocytes prior to induction of gametogenesis, replicate R3, read-out: % inhibition female (individual replicates) R3): 95.8%; inhibition at 2 µM ([1]; Plasmodium falciparum, 24h preincubation with gametocytes prior to induction of gametogenesis, replicate R4, read-out: % inhibition female (individual replicates) R4): 87.7%; HitlevelM ([2]; 24h preincubation): 1; inhibition at 2 µM ([2]; Plasmodium falciparum, 24h preincubation with gametocytes prior to induction of gametogenesis, average of replicates, read-out: Average inhibition male (%)): 20.5%; inhibition at 2 µM ([2]; Plasmodium falciparum, 24h preincubation with gametocytes prior to induction of gametogenesis, replicate R1, read-out: % inhibition male (individual replicates) R1): -8.8%; inhibition at 2 µM ([2]; Plasmodium falciparum, 24h preincubation with gametocytes prior to induction of gametogenesis, replicate R2, read-out: % inhibition male (individual replicates) R2): -11.5%; inhibition at 2 µM ([2]; Plasmodium falciparum, 24h preincubation with gametocytes prior to induction of gametogenesis, replicate R3, read-out: % inhibition male (individual replicates) R3): 48.5%; inhibition at 2 µM ([2]; Plasmodium falciparum, 24h preincubation with gametocytes prior to induction of gametogenesis, replicate R4, read-out: % inhibition male (individual replicates) R4): 54%
COc1ccccc1-c1nc2c(ccc3nc(N)nc(N)c32)[nH]1 [TCMDC-137976] | 0.68 | 41.0% | 50.1% | 49.2% | 39.4% | 5.52 | 1 | 1.2 | 63.5% | 72.4% | 76.7% | 81.8% | 5.76 | 3 | 2.07 µM |  |  | 
Fc1ccc2[nH]c(-c3ccc(-c4ccc(CNCCN5CCNCC5)cc4)cc3)nc2c1.O=C(O)C(F)(F)F [TC31] |  |  |  |  |  |  |  |  |  |  |  |  |  |  |  |  |  | Cytotox ratio Pf Female [1]: 2.9; Cytotox ratio Pf Male [2]: 12.1; pIC50 ([2]; this study, read-out: Pf DGFA IC50 MALE): 5.62; Mean TOX (HepG2 cells; mean of the HepG2 TOX50 values): 28.84 µM
Cc1cccc(Nc2nc(N[C@@H]3CCCNC3)nc3cc[nH]c(=O)c23)c1.O=C(O)C(F)(F)F [TCMDC-134835] | 0.58 |  |  |  |  |  |  | 21.63 |  |  |  |  |  |  | 4.45 µM | 5.11 | 6.68 | inhibition at 2 µM ([1]; Plasmodium falciparum, 24h preincubation with gametocytes, average of replicates, read-out: Average inhibition female (%)): -0.142%; inhibition at 2 µM ([1]; Plasmodium falciparum, 24h preincubation with gametocytes, replicate R1, read-out: % inhibition female (individual replicates) R1): 6.3%; inhibition at 2 µM ([1]; Plasmodium falciparum, 24h preincubation with gametocytes, replicate R2, read-out: % inhibition female (individual replicates) R2): 4.6%; inhibition at 2 µM ([1]; Plasmodium falciparum, 24h preincubation with gametocytes, replicate R3, read-out: % inhibition female (individual replicates) R3): -8.3%; inhibition at 2 µM ([1]; Plasmodium falciparum, 24h preincubation with gametocytes, replicate R4, read-out: % inhibition female (individual replicates) R4): -3.2%; inhibition at 2 µM ([2]; Plasmodium falciparum, 24h preincubation with gametocytes, average of replicates, read-out: Average inhibition male (%)): 97.3%; inhibition at 2 µM ([2]; Plasmodium falciparum, 24h preincubation with gametocytes, replicate R1, read-out: % inhibition male (individual replicates) R1): 96.8%; inhibition at 2 µM ([2]; Plasmodium falciparum, 24h preincubation with gametocytes, replicate R2, read-out: % inhibition male (individual replicates) R2): 100%; inhibition at 2 µM ([2]; Plasmodium falciparum, 24h preincubation with gametocytes, replicate R4, read-out: % inhibition male (individual replicates) R4): 94.9%
C[C@H](Cc1ccc(Oc2ccc(C[C@@H](C)NC[C@H](O)c3cccc(Cl)c3)cc2)cc1)NC[C@H](O)c1cccc(Cl)c1.Cl [TCMDC-131560] | 1.25 | 43.2% | 35.8% | 26.6% | 73.1% | 5.61 | 1 | 2.05 | 76.2% | 79.7% | 57.0% | 91.6% | 5.82 | 4 | 3.07 µM |  |  | 
